From patent US4069382A, “9-(5-O-Acyl-β-D-arabinofuranosyl)adenine compounds” (Parke, Davis & Company, priority 1976, dated 1978)
In brackets after ≈: the same amount, converted by molar mass.

Assay: water solubility
Type: physicochemical
Conditions: ph 7 buffer; for solubility: pH 7, aqueous buffer

| solubility | water solubility (pH 7) | Structure (SMILES) |
| --- | --- | --- |
| 9900 µg/mL (≈ 32 mM) |  | CC(=O)OC[C@H]1O[C@@H](n2cnc3c(N)ncnc32)[C@@H](O)[C@@H]1O [Example 1, 9-(5-O-acetyl-β-D-arabinofuranosyl)adenine] |
| 9200 µg/mL (≈ 28.5 mM) |  | CCC(=O)OC[C@H]1O[C@@H](n2cnc3c(N)ncnc32)[C@@H](O)[C@@H]1O [Example 2, 9-(5-O-propionyl-β-D-arabinofuranosyl)adenine] |
|  | 16100 µg/mL (≈ 47.7 mM) | CCCC(=O)OC[C@H]1O[C@@H](n2cnc3c(N)ncnc32)[C@@H](O)[C@@H]1O [Example 3, 9-(5-O-butyryl-β-D-arabinofuranosyl)adenine] |
| 8400 µg/mL (≈ 23.9 mM) |  | CCCCC(=O)OC[C@H]1O[C@@H](n2cnc3c(N)ncnc32)[C@@H](O)[C@@H]1O [Example 4] |
| 16400 µg/mL (≈ 46.7 mM) |  | CC(C)CC(=O)OC[C@H]1O[C@@H](n2cnc3c(N)ncnc32)[C@@H](O)[C@@H]1O [Example 5, 9-[5-O-(3-methylbutyryl)-β-D-arabinofuranosyl]-adenine] |
| 7000 µg/mL (≈ 19.9 mM) |  | CC(C)(C)C(=O)OC[C@H]1O[C@@H](n2cnc3c(N)ncnc32)[C@@H](O)[C@@H]1O [Example 6, 9-[5-O-(2,2-dimethylpropionyl)-β-D-arabinofuranosyl]-adenine] |
| 2500 µg/mL (≈ 6.84 mM) |  | CCCCCC(=O)OC[C@H]1O[C@@H](n2cnc3c(N)ncnc32)[C@@H](O)[C@@H]1O [Example 7, 9-(5-O-hexanoyl-β-D-arabinofuranosyl)adenine] |
